Measurements from paper PMC7665024, “Anti-apoptotic BCL-2 regulation by changes in dynamics of its long unstructured loop” (Communications Biology, 2020).

Legend:
BAX [1] = test: FRAP-GUV pore-forming activity of BAX, 10-kDa F-dextran; type: biochemical, mouse; design: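 unitless ratio D/D0 relative to diffusion coefficient after Triton X-100 disruption of GUVs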; details: 10 kDa F-dextran
Experimental: (§1) Briefly, GUVs were incubated with the proteins of interest over a period of time (Fig. 2c), followed by photobleaching within individual GUVs. A series of fluorescent images were collected over time after the photobleaching and then analyzed to yield the diffusion coefficients of Fluor molecules (including FITC-labeled 70-kDa, and Alexa-647-labeled 10-kDa probes) using the theoretical approach detailed in the “Methods” section. As Fluor molecules are homogeneously dispersed in the solution (outside and inside of GUVs) before the incubation with BAX and activators, it is reasonable to expect that the larger the induced pore area on the surface of a GUV, the greater the diffusion coefficient. Thus, the diffusion coefficient is directly related to the pore-forming activity of activated BAX. As the pore-forming activity is proportional to the concentration of BAX[18], we fixed the total amount of added BAX in all of the measurements below (see the “Methods” section).
(§2) Full-length BAX and variants were prepared as previously described[18],[22],[35]. Mouse BAX was cloned into pTYB1 vector (New England Biolabs, Inc.), resulting pTYB1-BAX construct. The pTYB1-BAX construct encoding a fusion protein of BAX with chitin-binding peptide was separated by a self-cleavable intein tag to obtain a full-length BAX. Wild-type BAX has two native cysteine residues at 62 and 126. Cysteine-free construct (C62S/C126S) was used to prepare single-cysteine BAX variants for conjugating fluorescence probes (e.g., BAX136C in Fig. 1d). Point mutations of recombinant BAX were generated using a QuikChange mutagenesis kit. Proteins were expressed in E. coli (ER2566) strain (New England Biolabs, Inc.) and purified without detergent. Bacterial cultures were grown at 37 °C in LB medium containing 0.1 g/L ampicillin to reach an OD600 of 1.0. BAX expression was induced by addition of 0.3 mM IPTG at 30 °C for 6−8 h. The cells were harvested by centrifugation and resuspended in ice-cold lysis buffer (20 mM Tris–HCl, pH 7.0, 500 mM NaCl and 1 mM PMSF). The resuspended pellet was sonicated on ice for 30 min, followed by centrifugation at 12,800 × g for 50 min. […] The resins were incubated in a pre-equilibrated buffer (20 mM sodium phosphate, pH 8.0, 100 mM NaCl, 60 mM dithiothreitol (DTT)) for 48 h. Proteins were eluted from column and further purified by a SEC using a HiLoad 16/60 Superdex 75 column (GE Healthcare) pre-equilibrated in PB buffer (20 mM sodium phosphate, pH 7.4, 100 mM NaCl). Purified proteins were confirmed by SDS–PAGE with Coomassie blue staining. Protein concentration was determined using absorption spectroscopy at 280 nm.
(§3) All lipids used were purchased from Avanti Polar Lipids. […] Texas Red 1,2-dihexadecanoyl-sn-glycero-3-phosphoethanolamine (TR-DPPE) (Invitrogen) of 0.05% was added to the lipid mixture for virtualization of GUV[18],[26],[27]. GUVs were prepared with the gel-assisted swelling on a polyvinyl alcohol (PVA) gel[39]. A 5% (w/w) solution of PVA (MW 145,000) was prepared by stirring PVA in ddH2O while heating at 90 °C. PVA solution was spread on a microscope coverslip (18 × 18 mm, Matsunami, Japan) and then dried at 50 °C. Lipid mixture (1 mg/mL) dissolved in chloroform were spread on the dry PVA film and placed under vacuum for 30 min to evaporate the solvent. Lipids were rehydrated for 1 h in PB buffer. The resulting GUVs were transferred to an Eppendorf tube using blunt tips.
(§4) FRAP measurements were performed as described previously. […] All reactions were at room temperature and the final volume was 200 μL.

BAX [2] = test: FRAP-GUV pore-forming activity of BAX, 70-kDa F-dextran; type: biochemical, mouse; design: FRAP pore-forming activity / FRAP pore-forming activity, average / p (FRAP-70k-p), Average: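 unitless ratio D/D0 relative to diffusion coefficient after Triton X-100 disruption of GUVs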
Experimental: as §1, §2, §3, §4

In the case of `CC1(C)CCC(CN2CCN(c3ccc(C(=O)NS(=O)(=O)c4ccc(NCC5CCOCC5)c([N+](=O)[O-])c4)c(Oc4cnc5[nH]ccc5c4)c3)CC2)=C(c2ccc(Cl)cc2)C1` [ABT-199, Venetoclax, reference compound], the “FRAP pore-forming activity, average” value (BAX [1]; mean of trials) was 0.0002024, the FRAP pore-forming activity (BAX [1]; trial1) was 0.0000000 and the FRAP pore-forming activity (BAX [1]; trial2) was 0.0001754. It also gave an FRAP pore-forming activity (BAX [1]; trial3) of 0.0000000, an FRAP pore-forming activity (BAX [1]; trial4) of 0.0001754 and an FRAP pore-forming activity (BAX [1]; trial5) of 0.0000000. The FRAP pore-forming activity (BAX [1]; trial6) was 0.0000000, the FRAP pore-forming activity (BAX [1]; trial7) was 0.0001754 and the FRAP pore-forming activity (BAX [1]; trial8) was 0.0008772. It also gave an FRAP pore-forming activity (BAX [1]; trial9) of 0.0007018, an FRAP pore-forming activity (BAX [1]; trial10) of 0.0000000 and an FRAP pore-forming activity (BAX [1]; trial11) of 0.0001754. The FRAP pore-forming activity (BAX [1]; trial12) was 0.0001754, the FRAP pore-forming activity (BAX [1]; trial13) was 0.0001754 and the “pore-forming activity / effect on BAX-induced membrane pores on GUV (in words)” value (BAX [2]; 10- and 70-kDa F-dextran, BAX 1 µM, BimBH3 2 µM, BCL-2 1 µM, ABT-199 30 µM, room temperature, Fig. 2c) was “BimBH3 is released from EEE to induce BAX activation and membrane pores”. The “FRAP pore-forming activity, average” value (BAX [2]; 70 kDa F-dextran, mean of trials) was 0.0000762, the FRAP pore-forming activity (BAX [2]; 70 kDa F-dextran, trial1) was 0.0000000 and the FRAP pore-forming activity (BAX [2]; 70 kDa F-dextran, trial2) was 0.000165. It also gave an FRAP pore-forming activity (BAX [2]; 70 kDa F-dextran, trial3) of 0.0000000, an FRAP pore-forming activity (BAX [2]; 70 kDa F-dextran, trial4) of 0.000165 and an FRAP pore-forming activity (BAX [2]; 70 kDa F-dextran, trial5) of 0.0000000. For the same molecule, the FRAP pore-forming activity (BAX [2]; 70 kDa F-dextran, trial6) was 0.0000000, the FRAP pore-forming activity (BAX [2]; 70 kDa F-dextran, trial7) was 0.000165 and the FRAP pore-forming activity (BAX [2]; 70 kDa F-dextran, trial8) was 0.0000000. The FRAP pore-forming activity (BAX [2]; 70 kDa F-dextran, trial9) was 0.0000000, the FRAP pore-forming activity (BAX [2]; 70 kDa F-dextran, trial10) was 0.0000000 and the FRAP pore-forming activity (BAX [2]; 70 kDa F-dextran, trial11) was 0.000165. For the same molecule, the FRAP pore-forming activity (BAX [2]; 70 kDa F-dextran, trial12) was 0.000165 and the FRAP pore-forming activity (BAX [2]; 70 kDa F-dextran, trial13) was 0.000165.
